Assay results published in ChEMBL document CHEMBL1201862, “PubChem BioAssay data set” (2004).
Activity calls are given as the source filed them.

Experiments:
Beta-galactosidase [1] = biological target: T1, Beta-galactosidase (Escherichia coli, UniProt Q8VNN2); test: PubChem AID 485352; format: functional
[2] = biological target: T2, Type-1 angiotensin II receptor (Homo sapiens, UniProt P30556); test: AT1 receptor antagonists, dose response, selectivity assay for APJ receptor antagonist project, cell-based, uHTS hits (AID 463214); format: functional;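 note: antagonist potency against angiotensin II stimulated AT1 response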
T2 sequence (P30556 whole entry): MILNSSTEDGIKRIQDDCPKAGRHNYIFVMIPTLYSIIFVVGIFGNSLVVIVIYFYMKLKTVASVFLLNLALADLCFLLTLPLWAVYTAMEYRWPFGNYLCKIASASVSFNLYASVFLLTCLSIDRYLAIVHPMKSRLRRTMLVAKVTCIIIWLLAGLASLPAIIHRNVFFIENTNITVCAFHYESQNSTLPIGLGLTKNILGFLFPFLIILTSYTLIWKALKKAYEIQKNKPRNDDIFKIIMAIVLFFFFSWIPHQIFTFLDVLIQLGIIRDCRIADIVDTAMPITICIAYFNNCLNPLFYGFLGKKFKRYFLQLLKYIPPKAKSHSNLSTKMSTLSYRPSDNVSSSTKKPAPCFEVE

Streptococcus = test: Group A Streptococcus viability loss, dose response, counter-screen for streptokinase expression inhibitor project, luminescence, BacTiterGlo (AID 1915); format: functional, organism-based;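 note: potency for reduction of bacterial viability or growth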
[3] = Luminescence Cell-Based Dose Response HTS to Identify Inhibitors of 5'UTR Stem-Loop Driven Prion Protein mRNA Translation in H4 Neuroglioblastoma Cells. [Related pubchem assays: 1827 (Project Summary), 1813 (Primary HTS)]; format: functional
Hexokinase-1 = biological target: T3, Hexokinase-1 (Homo sapiens, UniProt P19367); test: hexokinase 1 activators, dose response, selectivity assay for HKDC1 activator project, biochemical (AID 504762); format: functional
T3 sequence (P19367 whole entry): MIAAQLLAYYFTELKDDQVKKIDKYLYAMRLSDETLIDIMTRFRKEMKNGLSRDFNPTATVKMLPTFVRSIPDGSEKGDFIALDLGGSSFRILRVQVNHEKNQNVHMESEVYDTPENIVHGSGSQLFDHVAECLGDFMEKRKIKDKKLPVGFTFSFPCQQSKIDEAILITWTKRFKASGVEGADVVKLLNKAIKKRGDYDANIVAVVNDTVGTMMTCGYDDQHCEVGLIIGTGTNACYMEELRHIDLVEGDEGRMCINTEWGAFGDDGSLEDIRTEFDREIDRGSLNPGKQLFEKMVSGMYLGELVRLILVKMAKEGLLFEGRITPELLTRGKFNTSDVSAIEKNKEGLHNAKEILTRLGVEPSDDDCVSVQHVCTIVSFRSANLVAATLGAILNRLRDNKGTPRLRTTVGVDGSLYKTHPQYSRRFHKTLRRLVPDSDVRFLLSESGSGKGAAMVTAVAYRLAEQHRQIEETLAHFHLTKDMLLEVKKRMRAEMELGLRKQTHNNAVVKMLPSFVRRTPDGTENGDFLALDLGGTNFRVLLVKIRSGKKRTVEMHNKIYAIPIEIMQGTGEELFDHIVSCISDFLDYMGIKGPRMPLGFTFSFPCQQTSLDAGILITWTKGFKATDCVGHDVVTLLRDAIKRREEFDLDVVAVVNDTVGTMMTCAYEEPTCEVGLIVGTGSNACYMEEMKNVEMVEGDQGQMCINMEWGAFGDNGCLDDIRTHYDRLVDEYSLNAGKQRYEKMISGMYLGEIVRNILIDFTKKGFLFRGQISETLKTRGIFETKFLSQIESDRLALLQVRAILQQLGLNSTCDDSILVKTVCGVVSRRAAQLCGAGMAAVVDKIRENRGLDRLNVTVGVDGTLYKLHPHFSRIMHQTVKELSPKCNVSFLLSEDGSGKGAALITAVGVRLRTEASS

Hexokinase HKDC1 = biological target: T4, Hexokinase HKDC1 (Homo sapiens, UniProt Q2TB90); test: HKDC1 hexokinase activators, dose response, biochemical, W721R variant (AID 504730); format: functional
T4 sequence (Q2TB90 whole entry): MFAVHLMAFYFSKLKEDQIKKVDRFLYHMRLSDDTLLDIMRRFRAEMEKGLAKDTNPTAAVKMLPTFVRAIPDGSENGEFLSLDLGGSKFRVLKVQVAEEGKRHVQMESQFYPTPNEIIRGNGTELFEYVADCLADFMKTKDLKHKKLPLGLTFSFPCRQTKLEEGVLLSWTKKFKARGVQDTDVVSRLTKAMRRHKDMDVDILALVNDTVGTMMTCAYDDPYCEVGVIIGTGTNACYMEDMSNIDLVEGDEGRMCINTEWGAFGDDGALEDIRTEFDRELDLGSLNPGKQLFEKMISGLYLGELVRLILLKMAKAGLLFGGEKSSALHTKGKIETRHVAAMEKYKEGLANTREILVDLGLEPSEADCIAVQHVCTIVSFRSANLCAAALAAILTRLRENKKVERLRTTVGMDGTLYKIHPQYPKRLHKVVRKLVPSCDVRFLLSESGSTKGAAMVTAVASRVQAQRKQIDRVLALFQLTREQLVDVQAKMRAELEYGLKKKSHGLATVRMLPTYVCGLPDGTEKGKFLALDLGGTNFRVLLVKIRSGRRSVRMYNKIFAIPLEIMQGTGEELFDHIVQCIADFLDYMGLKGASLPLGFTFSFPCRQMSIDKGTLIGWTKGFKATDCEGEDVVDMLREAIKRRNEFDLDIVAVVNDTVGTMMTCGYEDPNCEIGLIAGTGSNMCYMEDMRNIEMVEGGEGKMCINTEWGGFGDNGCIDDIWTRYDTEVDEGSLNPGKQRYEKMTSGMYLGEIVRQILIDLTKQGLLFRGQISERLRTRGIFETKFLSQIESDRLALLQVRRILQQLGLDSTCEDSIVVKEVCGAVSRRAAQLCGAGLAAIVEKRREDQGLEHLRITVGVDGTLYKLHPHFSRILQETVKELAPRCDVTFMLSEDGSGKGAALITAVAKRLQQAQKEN

[4] = tested on: Streptococcus sp. 'group A'; test: growth inhibition of control SK(-) GAS strain, dose response, counter-screen for streptokinase expression inhibitor project, luminescence, kanamycin, BacTiterGlo, confirmation (AID 1900); format: functional, organism-based
[5] = inhibitors of SNCA 5'UTR-driven reporter translation, confirmation, H4 neuroglioma cells, luminescence (AID 1988); format: functional, cell-based
[6] = A Cell Based Secondary Assay To Explore Cytotoxicity of Compounds that Sensitize Mycobacterium Tuberculosis to Beta-Lactam Antibiotics.; format: functional
[7] = inhibitors of firefly luciferase expression or activity, dose response, H4 neuroglioma cells, luminescence (AID 1990); format: functional, cell-based
[8] = biological target: T5, Kappa-type opioid receptor (Homo sapiens, UniProt P41145); format: functional
INS1 = test: beta cell apoptosis inhibitors, cytokine rescue, dose response, luminescence, retest (AID 449756); format: functional, cell-based; conditions: Rattus norvegicus;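 note: cell death triggered by IL-1 beta plus TNF-alpha plus IFN-gamma mixture; protective hits raise ATP signal compared with cytokine alone wells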
[9] = biological target: T6, Delta-type opioid receptor (Homo sapiens, UniProt P41143); test: HTS Image-Based Screen for Agonists of the DOR Receptor. [Related pubchem assays (depositor defined):AID1777, AID1786, AID2133]; format: functional
Mu-type opioid receptor = Mu-type opioid receptor (Homo sapiens, UniProt P35372); test: HTS Image-Based Screen for Agonists of the MOR Receptor. [Related pubchem assays (depositor defined):AID1777, AID1785, AID1786, AID2133]; format: functional;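 note: imaging of beta-arrestin GFP recruitment into spots after receptor activation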
[10] = biological target: T5, Kappa-type opioid receptor; format: functional; remark: listed apart in the source
[11] = biological target: T6, Delta-type opioid receptor; test: HTS Image-Based Screen for Antagonists of the DOR Receptor. [Related pubchem assays (depositor defined):AID1777, AID1785, AID1786, AID2133]; format: functional
[12] = HepG2 cell cytotoxicity, dose response, cytotoxicity control for non-replicating M. tuberculosis project (AID 489018); format: functional; conditions: Mycobacterium tuberculosis
Beta-galactosidase [13] = biological target: T1, Beta-galactosidase; format: functional
[14] = Vero E6 cell cytotoxicity, dose response, cytotoxicity control for non-replicating M. tuberculosis project, secondary assay (AID 492998); format: functional, VeroE6; conditions: Vero C1008
[15] = microbe, parasite or virus in culture; format: functional; conditions: Mycobacterium tuberculosis
[16] = THP-1 cell cytotoxicity, dose response, cytotoxicity control for non-replicating M. tuberculosis project (AID 489025); format: functional
cells = format: functional
[17] = biological target: T7, Tyrosine-protein phosphatase non-receptor type 22 (Homo sapiens, UniProt Q9Y2R2); format: functional
T7 sequence (Q9Y2R2 whole entry): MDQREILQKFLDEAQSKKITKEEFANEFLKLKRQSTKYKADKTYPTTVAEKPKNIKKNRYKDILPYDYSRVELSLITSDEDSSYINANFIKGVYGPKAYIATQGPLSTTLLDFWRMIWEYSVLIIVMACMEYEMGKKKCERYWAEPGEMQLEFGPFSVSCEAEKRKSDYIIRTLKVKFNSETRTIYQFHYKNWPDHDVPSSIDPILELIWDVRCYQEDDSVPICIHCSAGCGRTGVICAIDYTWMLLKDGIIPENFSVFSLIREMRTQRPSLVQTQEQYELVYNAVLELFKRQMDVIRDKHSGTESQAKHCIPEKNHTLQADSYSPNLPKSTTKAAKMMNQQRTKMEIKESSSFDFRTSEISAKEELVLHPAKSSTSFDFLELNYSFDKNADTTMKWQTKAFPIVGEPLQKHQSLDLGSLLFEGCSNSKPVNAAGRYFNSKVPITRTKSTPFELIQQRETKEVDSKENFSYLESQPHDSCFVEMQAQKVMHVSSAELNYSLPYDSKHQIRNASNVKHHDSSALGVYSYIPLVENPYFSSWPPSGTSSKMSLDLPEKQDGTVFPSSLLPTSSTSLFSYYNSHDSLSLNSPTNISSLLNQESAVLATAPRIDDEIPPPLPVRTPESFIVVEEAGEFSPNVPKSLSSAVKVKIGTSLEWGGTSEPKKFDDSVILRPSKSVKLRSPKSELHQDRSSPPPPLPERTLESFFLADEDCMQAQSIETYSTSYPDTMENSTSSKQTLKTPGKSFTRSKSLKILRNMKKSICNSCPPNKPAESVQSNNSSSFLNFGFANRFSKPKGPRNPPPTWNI

[18] = biological target: T7, Tyrosine-protein phosphatase non-receptor type 22; format: functional; remark: listed apart in the source
[19] = biological target: T8, Tyrosine-protein phosphatase non-receptor type 7 (Homo sapiens, UniProt P35236); format: functional
T8 sequence (P35236 whole entry): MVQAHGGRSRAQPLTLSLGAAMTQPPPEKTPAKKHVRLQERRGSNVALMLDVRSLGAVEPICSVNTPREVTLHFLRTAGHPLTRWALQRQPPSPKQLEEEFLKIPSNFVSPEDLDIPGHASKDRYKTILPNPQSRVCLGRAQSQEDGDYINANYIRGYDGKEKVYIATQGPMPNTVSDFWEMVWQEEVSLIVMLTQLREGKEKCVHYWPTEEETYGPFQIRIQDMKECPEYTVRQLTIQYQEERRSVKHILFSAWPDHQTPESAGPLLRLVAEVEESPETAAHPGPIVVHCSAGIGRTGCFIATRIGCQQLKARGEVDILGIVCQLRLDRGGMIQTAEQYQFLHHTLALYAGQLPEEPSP

[20] = biological target: T9, Heat shock factor protein 1 (Mus musculus, UniProt P38532); test: inhibition of MG132-induced HSE-luciferase signal, confirmation, cell-based, NIH3T3, luminescence, dose retest (AID 2382); format: functional;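 note: NIH3T3 fibroblasts with HSF1-driven luciferase reporter stressed by proteasome inhibitor MG132; luminescence from HSF1-driven luciferase expression after 8 hours of MG132 stress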
T9 sequence (P38532 whole entry): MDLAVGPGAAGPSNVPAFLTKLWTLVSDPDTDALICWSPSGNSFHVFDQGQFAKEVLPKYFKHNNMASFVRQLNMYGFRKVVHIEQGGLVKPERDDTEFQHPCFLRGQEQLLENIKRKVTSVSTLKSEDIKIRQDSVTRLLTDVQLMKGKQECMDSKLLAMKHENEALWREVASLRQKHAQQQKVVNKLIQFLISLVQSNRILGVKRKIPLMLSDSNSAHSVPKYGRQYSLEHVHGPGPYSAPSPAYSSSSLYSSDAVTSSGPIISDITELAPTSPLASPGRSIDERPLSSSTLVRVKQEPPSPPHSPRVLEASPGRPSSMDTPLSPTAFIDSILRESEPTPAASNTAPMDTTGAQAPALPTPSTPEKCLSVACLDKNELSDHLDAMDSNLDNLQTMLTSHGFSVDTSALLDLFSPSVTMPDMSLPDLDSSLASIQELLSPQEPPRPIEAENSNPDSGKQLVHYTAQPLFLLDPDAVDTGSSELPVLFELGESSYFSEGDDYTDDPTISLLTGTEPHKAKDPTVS

T1 sequence (Q8VNN2 whole entry): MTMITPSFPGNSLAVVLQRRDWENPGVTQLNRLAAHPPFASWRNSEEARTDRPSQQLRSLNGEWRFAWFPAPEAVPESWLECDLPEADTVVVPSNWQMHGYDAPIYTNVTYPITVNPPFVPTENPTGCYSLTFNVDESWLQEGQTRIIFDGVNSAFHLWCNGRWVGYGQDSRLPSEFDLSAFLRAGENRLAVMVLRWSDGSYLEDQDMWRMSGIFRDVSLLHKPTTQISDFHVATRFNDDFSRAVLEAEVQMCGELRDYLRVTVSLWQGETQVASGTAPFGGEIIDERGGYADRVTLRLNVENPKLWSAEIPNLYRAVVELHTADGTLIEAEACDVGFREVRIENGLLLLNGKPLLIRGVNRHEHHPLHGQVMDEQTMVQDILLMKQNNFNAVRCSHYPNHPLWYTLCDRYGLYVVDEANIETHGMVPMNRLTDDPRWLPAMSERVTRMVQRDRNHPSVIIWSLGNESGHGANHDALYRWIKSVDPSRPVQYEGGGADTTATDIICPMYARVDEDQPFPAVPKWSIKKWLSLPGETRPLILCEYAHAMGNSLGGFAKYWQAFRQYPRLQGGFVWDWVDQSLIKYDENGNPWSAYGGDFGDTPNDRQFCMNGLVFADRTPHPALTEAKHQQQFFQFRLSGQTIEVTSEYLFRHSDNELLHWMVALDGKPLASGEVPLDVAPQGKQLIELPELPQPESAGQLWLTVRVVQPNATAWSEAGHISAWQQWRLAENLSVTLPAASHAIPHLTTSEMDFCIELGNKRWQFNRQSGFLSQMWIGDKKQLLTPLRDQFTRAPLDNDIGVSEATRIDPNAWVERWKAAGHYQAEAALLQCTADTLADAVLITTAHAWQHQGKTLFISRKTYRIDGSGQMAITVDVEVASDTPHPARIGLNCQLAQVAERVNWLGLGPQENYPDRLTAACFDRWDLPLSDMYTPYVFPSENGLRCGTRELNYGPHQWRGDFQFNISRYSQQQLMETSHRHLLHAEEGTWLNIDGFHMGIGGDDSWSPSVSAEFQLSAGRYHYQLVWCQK
T6 sequence (P41143 whole entry): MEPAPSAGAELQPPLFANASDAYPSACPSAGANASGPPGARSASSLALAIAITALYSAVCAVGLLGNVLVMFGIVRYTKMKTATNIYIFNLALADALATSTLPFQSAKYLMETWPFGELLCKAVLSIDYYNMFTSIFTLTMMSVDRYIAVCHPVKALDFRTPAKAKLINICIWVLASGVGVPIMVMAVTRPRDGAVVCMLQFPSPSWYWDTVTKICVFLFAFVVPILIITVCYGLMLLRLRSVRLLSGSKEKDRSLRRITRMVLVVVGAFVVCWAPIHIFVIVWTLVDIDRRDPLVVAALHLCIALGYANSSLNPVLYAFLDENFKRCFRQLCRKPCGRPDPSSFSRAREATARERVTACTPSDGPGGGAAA
T5 sequence (P41145 whole entry): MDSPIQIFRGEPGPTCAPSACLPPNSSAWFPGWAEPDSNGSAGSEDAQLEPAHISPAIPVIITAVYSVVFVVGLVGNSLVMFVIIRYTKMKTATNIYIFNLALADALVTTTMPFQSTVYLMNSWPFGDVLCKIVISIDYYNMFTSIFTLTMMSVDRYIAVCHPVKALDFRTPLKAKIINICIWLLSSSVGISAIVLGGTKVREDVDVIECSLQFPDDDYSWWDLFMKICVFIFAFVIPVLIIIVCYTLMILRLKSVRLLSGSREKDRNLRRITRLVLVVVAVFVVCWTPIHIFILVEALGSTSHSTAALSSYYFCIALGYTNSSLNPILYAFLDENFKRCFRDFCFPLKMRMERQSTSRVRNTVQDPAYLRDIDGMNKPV
Chain of Mu-type opioid receptor (P35372 whole entry): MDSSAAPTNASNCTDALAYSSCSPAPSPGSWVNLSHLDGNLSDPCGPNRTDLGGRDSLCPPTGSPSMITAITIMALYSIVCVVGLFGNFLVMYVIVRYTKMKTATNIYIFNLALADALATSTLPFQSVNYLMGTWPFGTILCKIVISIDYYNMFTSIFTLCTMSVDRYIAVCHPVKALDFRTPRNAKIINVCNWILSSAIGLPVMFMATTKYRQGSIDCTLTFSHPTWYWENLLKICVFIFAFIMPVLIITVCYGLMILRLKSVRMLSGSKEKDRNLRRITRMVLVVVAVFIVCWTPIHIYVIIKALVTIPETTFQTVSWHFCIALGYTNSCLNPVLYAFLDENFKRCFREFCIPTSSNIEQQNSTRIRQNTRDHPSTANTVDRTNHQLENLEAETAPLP

CCCCN(CCCC)C(=S)N/N=C/c1c(C)nn(-c2ccccc2)c1O
> 120 µM (not active): EC50 [5]
inactive: EC50 (Beta-galactosidase [1]) > 40 µM | EC50 (Hexokinase-1) > 80 µM | EC50 (Hexokinase HKDC1) 28.7 µM
active: IC50 [2] 13.3 µM | EC50 (Streptococcus) 11.4 µM | EC50 [3] 4.19 µM | EC50 [4] 0.221 µM | CC50 [6] 5.22 µM | EC50 [7] 13.3 µM

O=C(NNC(=O)C12CC3CC(CC(C3)C1)C2)c1ccccn1
active: AC50 (INS1) 3.14 µM | IC50 [10] 15 µM | IC50 [2] 11.2 µM | CC50 [12] > 20 µM | CC50 [14] 8.61 µM | CC50 [15] 16.7 µM | CC50 [16] 5.31 µM | IC50 (cells) 9.85 µM
inactive: EC50 (Beta-galactosidase [1]) > 40 µM | EC50 [9] > 32 µM | EC50 (Mu-type opioid receptor) > 32 µM | IC50 [11] > 32 µM | EC50 (Beta-galactosidase [13]) > 31.5 µM
> 32 µM: IC50 [8]

Cc1ccc(C(=O)O)cc1NC(=O)c1ccc2c(c1)C(=O)N(c1ccc([N+](=O)[O-])cc1)C2=O
active: IC50 [17] 15 µM | IC50 [18] 21.6 µM | IC50 [19] 10.9 µM

CCc1ccc(C2=NN=C(Nc3cccc(S(=O)(=O)N(C)C)c3)SC2)cc1
> 195 µM (not active): EC50 [20]
active: AC50 (INS1) 7.54 µM | EC50 (Hexokinase-1) 8.26 µM | EC50 (Hexokinase HKDC1) 10.3 µM
